# Values quoted from earlier work, collected in PMC12256174, “Next-Generation Oral Delivery Systems: Phytosomal Hinokitiol Tablets via REGEMAT 3D Bioprinter-Based 3D Printing for Enhanced Bioavailability” (Scientifica, 2025).
structure (smiles),measurement,value
CC(C)c1cccc(=O)c(O)c1 [Hinokitiol],aqueous solubility,1120 ± 20 µg/mL
